This note sets out measurements from patent US12030904B2 (priority 2020, dated 2024).

Read-outs that look alike come from different tables or passages of the source.

One may read the CC50 as the concentration at which the toxic effect on the cells reaches its halfway point. Higher therefore signals better tolerance by the cells. Usually EC50 stands for the midpoint of the concentration-response curve.

One data set is described as follows: MT4 cytotoxicity (CC50). Conditions: human, MT4 cells.
Data set [1] deals with Recombinant Respiratory Syncytial virus strain A2 containing the firefly luciferase reporter (RSV-Fluc). Description: microbe, parasite or virus in culture. Type of data set: cell-based. Conditions: human respiratory syncytial virus, NHBE.
For a further data set, the system named is SARS-CoV-2. Description: microbe, parasite or virus in culture. It counts as cell-based. Conditions: Severe acute respiratory syndrome coronavirus 2, read-out: SARS EC50.
The mark [2] stands for this setting: 72 h, read-out: RSV-Fluc EC50 (NHBE), NHBE cells, three days, Table 2.

In “MT4 cytotoxicity (CC50)” (MT4 CC50, Table 2a), `CCCCCCCCCCCCCCCCCCOC[C@H](COP(=O)(O)OC[C@H]1O[C@@](C#N)(c2ccc3c(N)ncnn23)[C@H](O)[C@@H]1O)OCc1ccc(C#N)c(Cl)c1` [Example 23, ((2R,3S,4R,5R)-5-(4-aminopyrrolo[2,1-f][1,2,4]triazin-7-yl)-5-cyano-3,4-dihydroxytetrahydrofuran-2-yl)methyl ((R)-2-((3-chloro-4-cyanobenzyl)oxy)-3-(octadecyloxy)propyl) hydrogen phosphate] had a CC50 of 723 nM. In addition, the EC50 in data set [1] (setting [2]) was 30 nM; in data set [1] (read-out: RSV EC50, Table 2a), 30 nM; in the data set with SARS-CoV-2, 459 nM.

The compound `CC(C)CCCCCCCCCCCCCCOC[C@H](COP(=O)(O)OC[C@H]1O[C@@](C#N)(c2ccc3c(N)ncnn23)[C@H](O)[C@@H]1O)OCc1ccccc1` [Example 24, ((2R,3S,4R,5R)-5-(4-aminopyrrolo[2,1-f][1,2,4]triazin-7-yl)-5-cyano-3,4-dihydroxytetrahydrofuran-2-yl)methyl ((R)-2-(benzyloxy)-3-((15-methylhexadecyl)oxy)propyl) hydrogen phosphate] had a CC50 in the data set “MT4 cytotoxicity (CC50)” (MT4 CC50, Table 2a) of 2200 nM. In addition, the EC50 in data set [1] (setting [2]) worked out at 42 nM; in data set [1] (read-out: RSV EC50, Table 2a) it was 42 nM; in the data set on SARS-CoV-2 it was 3320 nM.

In “MT4 cytotoxicity (CC50)” (MT4 CC50, Table 4), `CCCCCCCCCCCCCCCCCCOC[C@H](COP(=O)(O)OC[C@H]1O[C@@](C#N)(c2ccc3c(N)ncnn23)[C@H](O)[C@@H]1O)OCc1ccc(C#N)cc1Cl` [Example 103, [(2R,3S,4R,5R)-5-(4-Aminopyrrolo[2,1-f][1,2,4]triazin-7-yl)-5-cyano-3,4-dihydroxy-tetrahydrofuran-2-yl]methyl [(2R)-2-[(2-chloro-4-cyano-phenyl)methoxy]-3-octadecoxy-propyl] hydrogen phosphate] registered a 50% cytotoxic concentration (CC50) of 50000 nM. Moreover, the EC50 in data set [1] (read-out: RSV EC50, Table 4) stood at 387 nM; in the data set on SARS-CoV-2, 10000 nM.

Regarding `CCCCCCCCCCCCCCCCCCOC[C@@H](CCc1ccccc1)COP(=O)(O)OC[C@H]1O[C@@](C#N)(c2ccc3c(N)ncnn23)[C@H](O)[C@@H]1O` [Example 22, ((2R,3S,4R,5R)-5-(4-aminopyrrolo[2,1-f][1,2,4]triazin-7-yl)-5-cyano-3,4-dihydroxytetrahydrofuran-2-yl)methyl ((R)-2-((octadecyloxy)methyl)-4-phenylbutyl) hydrogen phosphate], in “MT4 cytotoxicity (CC50)” (MT4 CC50, Table 2a), the CC50 was determined as 26400 nM. Further, the EC50 in data set [1] (setting [2]) stood at 160 nM; in data set [1] (read-out: RSV EC50, Table 2a) it was 158 nM; with SARS-CoV-2, 5220 nM.

`CCCCCCCCCCCCCCCCCOC[C@H](COP(=O)(O)OC[C@H]1O[C@@](C#N)(c2ccc3c(N)ncnn23)[C@H](O)[C@@H]1O)OCc1ccc(C#N)c(F)c1` [Example 94, ((2R,3S,4R,5R)-5-(4-aminopyrrolo[2,1-f][1,2,4]triazin-7-yl)-5-cyano-3,4-dihydroxytetrahydrofuran-2-yl)methyl ((R)-2-((4-cyano-3-fluorobenzyl)oxy)-3-(heptadecyloxy)propyl) hydrogen phosphate] had a CC50 in “MT4 cytotoxicity (CC50)” (MT4 CC50, Table 4) of 273 nM. Further, the concentration for a half-maximal effect (EC50) in data set [1] (read-out: RSV EC50, Table 4) worked out at 38 nM; in the data set with SARS-CoV-2, 38 nM.

Regarding `CCCCCCCCCCCCOCCCOP(=O)(O)OC[C@H]1O[C@@](C#N)(c2ccc3c(N)ncnn23)[C@H](O)[C@@H]1O` [Example 57, ((2R,3S,4R,5R)-5-(4-Aminopyrrolo[2,1-f][1,2,4]triazin-7-yl)-5-cyano-3,4-dihydroxytetrahydrofuran-2-yl)methyl (3-(dodecyloxy)propyl) hydrogen phosphate], the cytotoxic concentration (CC50) in the data set “MT4 cytotoxicity (CC50)” (MT4 CC50, Table 2a) is 50000 nM. For the same compound, the EC50 in data set [1] (setting [2]) is 2200 nM; in data set [1] (read-out: RSV EC50, Table 2a) it was 2180 nM; with SARS-CoV-2 it was 10000 nM.

In the data set “MT4 cytotoxicity (CC50)” (MT4 CC50, Table 4), `CCCCCCCC/C=C\CCCCCCCCOC[C@H](COP(=O)(O)OC[C@H]1O[C@@](C#N)(c2ccc3c(N)ncnn23)[C@H](O)[C@@H]1O)OCc1ccc(C#N)cc1F` [Example 129, ((2R,3S,4R,5R)-5-(4-aminopyrrolo[2,1-f][1,2,4]triazin-7-yl)-5-cyano-3,4-dihydroxytetrahydrofuran-2-yl)methyl ((R)-2-((4-cyano-2-fluorobenzyl)oxy)-3-(((Z)-octadec-9-en-1-yl)oxy)propyl) hydrogen phosphate] showed a CC50 of 2430 nM. The EC50 in data set [1] (read-out: RSV EC50, Table 4) is 22 nM; with SARS-CoV-2, 110 nM.

In the data set “MT4 cytotoxicity (CC50)” (MT4 CC50, Table 4), `CCCCCCCCCCCCCCCOC[C@H](COP(=O)(O)OC[C@H]1O[C@@](C#N)(c2ccc3c(N)ncnn23)[C@H](O)[C@@H]1O)OCc1ccc(C#N)cc1F` [Example 102, [(2R,3S,4R,5R)-5-(4-aminopyrrolo[2,1-f][1,2,4]triazin-7-yl)-5-cyano-3,4-dihydroxy-tetrahydrofuran-2-yl]methyl [(2R)-2-[(4-cyano-2-fluoro-phenyl)methoxy]-3-pentadecoxy-propyl] hydrogen phosphate] showed a CC50 of 4500 nM. In addition, the EC50 in data set [1] (read-out: RSV EC50, Table 4) is 21 nM; in the data set with SARS-CoV-2, 120 nM.

Turning to `CCCCCCCCCCCCCCCCCCOC[C@H](COP(=O)(O)OC[C@H]1O[C@@](C#N)(c2ccc3c(N)ncnn23)[C@H](O)[C@@H]1O)OCc1ccc(C#N)nc1` [Example 116, [(2R,3S,4R,5R)-5-(4-aminopyrrolo[2,1-f][1,2,4]triazin-7-yl)-5-cyano-3,4-dihydroxy-tetrahydrofuran-2-yl]methyl [(2R)-2-[(6-cyano-3-pyridyl)methoxy]-3-octadecoxy-propyl] hydrogen phosphate], it took 690 nM to reach half-maximal cytotoxicity in the data set “MT4 cytotoxicity (CC50)” (MT4 CC50, Table 4) (CC50). For the same compound, the EC50 is 26 nM in data set [1] (read-out: RSV EC50, Table 4) and 170 nM in the data set with SARS-CoV-2.

For the compound `CCCCCCCCCCCCCCCCCCOC[C@H](COP(=O)(O)OC[C@H]1O[C@@](C#N)(c2ccc3c(N)ncnn23)[C@H](O)[C@@H]1O)OCc1cccc(C(F)F)c1` [Example 32, ((2R,3S,4R,5R)-5-(4-aminopyrrolo[2,1-f][1,2,4]triazin-7-yl)-5-cyano-3,4-dihydroxytetrahydrofuran-2-yl)methyl ((R)-2-((3-(difluoromethyl)benzyl)oxy)-3-(octadecyloxy)propyl) hydrogen phosphate], half-maximal cytotoxicity in the data set “MT4 cytotoxicity (CC50)” (MT4 CC50, Table 2a) (CC50) was put at 2660 nM. In addition, the EC50 turned out to be 64 nM in data set [1] (read-out: RSV EC50, Table 2a) and 3040 nM with SARS-CoV-2.

As to `CCCCCCCCCCCCCCCCCCOC[C@H](COP(=O)(O)OC[C@H]1O[C@@](C#N)(c2ccc3c(N)ncnn23)[C@H](O)[C@@H]1O)OCc1ccc(C#N)c(F)c1` [Example 67, ((2R,3S,4R,5R)-5-(4-aminopyrrolo[2,1-f][1,2,4]triazin-7-yl)-5-cyano-3,4-dihydroxytetrahydrofuran-2-yl)methyl ((R)-2-((4-cyano-3-fluorobenzyl)oxy)-3-(octadecyloxy)propyl) hydrogen phosphate], the CC50 in the data set “MT4 cytotoxicity (CC50)” (MT4 CC50, Table 2a) stood at 744 nM. The EC50 in data set [1] (setting [2]) turned out to be 7.6 nM; in data set [1] (read-out: RSV EC50, Table 2a), 19 nM; with SARS-CoV-2 it was 229 nM.

In turn, `CCCCCCCCCCCCCCCCCCOC[C@H](COP(=O)(O)OC[C@H]1O[C@@](C#N)(c2ccc3c(N)ncnn23)[C@H](O)[C@@H]1O)OCc1cc(F)ccc1C#N` [Example 51, ((2R,3S,4R,5R)-5-(4-aminopyrrolo[2,1-f][1,2,4]triazin-7-yl)-5-cyano-3,4-dihydroxytetrahydrofuran-2-yl)methyl ((R)-2-((2-cyano-5-fluorobenzyl)oxy)-3-(octadecyloxy)propyl) hydrogen phosphate] displayed a CC50 in “MT4 cytotoxicity (CC50)” (MT4 CC50, Table 2a) of 2140 nM. In the data set on SARS-CoV-2, the concentration for a half-maximal effect (EC50) was 1650 nM.

The compound `CCCCCCCCCCCCCCCCCCOC[C@H](COP(=O)(O)OC[C@H]1O[C@@](C#N)(c2ccc3c(N)ncnn23)[C@H](O)[C@@H]1O)Oc1cncc(C#N)c1` [Example 84, ((2R,3S,4R,5R)-5-(4-aminopyrrolo[2,1-f][1,2,4]triazin-7-yl)-5-cyano-3,4-dihydroxytetrahydrofuran-2-yl)methyl ((R)-2-((5-cyanopyridin-3-yl)oxy)-3-(octadecyloxy)propyl) hydrogen phosphate] showed a CC50 in “MT4 cytotoxicity (CC50)” (MT4 CC50, Table 4) of 212 nM. Besides, in data set [1] (read-out: RSV EC50, Table 4), the concentration giving a half-maximal response (EC50) is 7 nM.

Take `CCCCCCCCCCCCCCCCCCOC[C@H](COP(=O)(O)OC[C@H]1O[C@@](C#N)(c2ccc3c(N)ncnn23)[C@H](O)[C@@H]1O)Oc1ccc(C#N)c(OCC)c1` [Example 85, ((2R,3S,4R,5R)-5-(4-aminopyrrolo[2,1-f][1,2,4]triazin-7-yl)-5-cyano-3,4-dihydroxytetrahydrofuran-2-yl)methyl ((R)-2-(4-cyano-3-ethoxyphenoxy)-3-(octadecyloxy)propyl) hydrogen phosphate]: in the data set “MT4 cytotoxicity (CC50)” (MT4 CC50, Table 4), the 50% cytotoxic concentration (CC50) was determined as 143 nM. In data set [1] (read-out: RSV EC50, Table 4), the concentration giving a half-maximal response (EC50) is 8 nM.

The compound `CCCCCCCCCCCCCCCCCCOC[C@@H](CCc1cc(F)cc(C#N)c1)COP(=O)(O)OC[C@H]1O[C@@](C#N)(c2ccc3c(N)ncnn23)[C@H](O)[C@@H]1O` [Example 86, ((2R,3S,4R,5R)-5-(4-aminopyrrolo[2,1-f][1,2,4]triazin-7-yl)-5-cyano-3,4-dihydroxytetrahydrofuran-2-yl)methyl ((R)-4-(3-cyano-5-fluorophenyl)-2-((octadecyloxy)methyl)butyl) hydrogen phosphate] registered a CC50 in “MT4 cytotoxicity (CC50)” (MT4 CC50, Table 4) of 22000 nM. Besides, the EC50 in data set [1] (read-out: RSV EC50, Table 4) turned out to be 430 nM.

As for `CCCCCCCC/C=C\CCCCCCCCOC[C@H](COP(=O)(O)OC[C@H]1O[C@@](C#N)(c2ccc3c(N)ncnn23)[C@H](O)[C@@H]1O)OCc1cc(F)cc(C#N)c1` [Example 128, ((2R,3S,4R,5R)-5-(4-aminopyrrolo[2,1-f][1,2,4]triazin-7-yl)-5-cyano-3,4-dihydroxytetrahydrofuran-2-yl)methyl ((R)-2-((3-cyano-5-fluorobenzyl)oxy)-3-(((Z)-octadec-9-en-1-yl)oxy)propyl) hydrogen phosphate], the CC50 in the data set “MT4 cytotoxicity (CC50)” (MT4 CC50, Table 4) is 730 nM. Moreover, the EC50 in data set [1] (read-out: RSV EC50, Table 4) amounted to 2 nM.
